Laboratory results reported in US7799799B2, “Indolizine derivatives, method for preparing same, and therapeutic compositions comprising same” (Sanofi-Aventis, priority 2005, dated 2010).
Converted amounts (≈) assume the structure as drawn. Structures can show the parent of a compound that is named as a salt.

Columns and labels:
[1] = at a pH of 3; cited from earlier work
[2] = Solubility test at pH=4 from phosphate buffer pH 6 0.1M, by HPLC; assay type: physicochemical; settings: for solubility at 5 min: aqueous buffer, thermodynamic from solid, phosphate buffer pH 6 0.1M, HPLC, first figure of the S/pH cell, the pH of the sample is the second; for pH (of the solubility sample): second figure of the S/pH cell, pH noted for the solubility sample
Description: The results for solubility, S, and pH are shown in the table below and are expressed in mg/ml.
A phosphate buffer, pH6, 0.1M, was prepared by adding 6.15 ml of 0.1M Na2HPO4 to 43.85 ml of 0.1M NaH2PO4. The solution was made up to 100 ml with filtered water using a Millipore system (trade mark).
Reference (Test Product in a Concentration in which the Latter is Soluble and which Acts as an Internal Reference)
About 0.2 mg (in a boat) was weighed out exactly and diluted in 1 ml of H2O/CH3CN: (50:50), i.e. 0.2 mg/ml, then the sample was subjected to ultrasound for 5 minutes.
About 4 mg (in a boat) was weighed out exactly and diluted in 400 μl (i.e. 10 mg/ml) of pH6 phosphate buffer (0.1M), then the sample was subjected to ultrasound for 5 minutes.
The pH was noted and if the pH was below 4, 1 μl of NaOH 1N was added (from 1 μl in 1 μl) until the pH was more than 4, then the pH was noted again. The solution (0.45 μm) was filtered then if necessary diluted with the phosphate buffer pH6. (If the product re-precipitated after diluting, the diluted sample was ignored, the mother solution was used and the solubility was determined at a wavelength other than λmax, to avoid saturating the signal.
The solubility of the compound was then determined by HPLC under the following conditions:
Instrument: Agilent 1100 chromatograph
Column temperature: 30° C. Flow rate: 0.8 ml/min Detection: λ=230 nm Injection volume: 5 μl

Row | SMILES | solubility in water S [1] [µg/mL] | solubility at 5 min [2] [µg/mL] | pH (of the solubility sample) [2]
1 | CCCCc1oc2ccc(NS(C)(=O)=O)cc2c1C(=O)c1ccc(OCCCN(CCCC)CCCC)cc1 [Dronedarone] | 247 (≈ 444 µM) |  | 
2 | CCCN(CCC)CCCCc1ccc(C(=O)c2c(C)cc3ccccn23)cc1 [compound 15, {4-[4-(dipropylamino)butyl]phenyl}(2-methylindolizin-3-yl)methanone hydrochloride] |  | 1560 | 6.33
3 | CCCCc1cc2ccccn2c1C(=O)c1ccc(CCCN(CCCC)CCCC)cc1 [compound 17, (2-butylindolizin-3-yl){4-[3-(dibutylamino)propyl]phenyl}methanone hydrochloride] |  | > 10000 | 4.88
4 | CCc1cc2ccccn2c1C(=O)c1ccc(CCCN(CC)CC)cc1.O=C(O)C(=O)O [compound 2, (2-ethylindolizin-3-yl){4-[3-(diethylamino)propyl]phenyl}methanone oxalate] |  | 7470 | 4.07
5 | CCCN(CC)CCCCc1ccc(C(=O)c2c(CC)cc3ccccn23)cc1 [compound 31, (2-ethylindolizin-3-yl)(4-{4-[ethyl(propyl)amino]butyl}phenyl)methanone oxalate] |  | > 10000 | 4.05
6 | CCCCc1cc2ccccn2c1C(=O)c1ccc(CCCN(CCOC)CCOC)cc1 [compound 41, (4-{3-[bis(2-methoxyethyl)amino]propyl}phenyl)(2-butylindolizin-3-yl)methanone oxalate] |  | 7190 | 3.95
7 | CCCc1cc2ccccn2c1C(=O)c1ccc(CCCN(CCC)CCC)cc1 [compound 9, {4-[3-(dipropylamino)propyl]phenyl}(2-propylindolizin-3-yl)methanone hydrochloride] |  | 5290 | 5.82
8 | CCCCc1cc2ccccn2c1C(=O)c1ccc(CCCN(CCC)CC2CC2)cc1 [compound 35, (2-butylindolizin-3-yl)(4-{3-[(cyclopropylmethyl)(propyl)amino]propyl}phenyl)methanone hydrochloride] |  | 4400 | 4.75
9 | CCCCc1cc2ccccn2c1C(=O)c1ccc(CCCN(CC)CC)cc1.Cl [compound 1, (2-butylindolizin-3-yl){4-[3-(diethylamino)propyl]phenyl}methanone hydrochloride] |  | 8810 | 5.4
10 | CCCCN(CCCC)CCCCc1ccc(C(=O)c2c(CCC)cc3ccccn23)cc1 [compound 22, {4-[4-(dibutylamino)butyl]phenyl}(2-propylindolizin-3-yl)methanone oxalate] |  | 4080 | 4.58
11 | CCCN(CC)CCCc1ccc(C(=O)c2c(CC)cc3ccccn23)cc1 [compound 24, (2-ethylindolizin-3-yl)(4-{3-[ethyl(propyl)amino]propyl}phenyl)methanone oxalate] |  | 5920 | 4.51
12 | CCCN(CC)CCCc1ccc(C(=O)c2c(C(C)C)cc3ccccn23)cc1 [compound 25, (4-{3-[ethyl(propyl)amino]propyl}phenyl)(2-isopropylindolizin-3-yl)methanone hydrochloride] |  | 1710 | 6.4
13 | CCCN(CCC)CCCc1ccc(C(=O)c2c(CC)cc3ccccn23)cc1 [compound 8, {4-[3-(dipropylamino)propyl]phenyl}(2-ethylindolizin-3-yl)methanone hydrochloride] |  | 8600 | 5.82
14 | CCCCc1cc2ccccn2c1C(=O)c1ccc(CCCN(CCC)CCCC)cc1 [compound 33, (2-butylindolizin-3-yl)(4-{3-[butyl(propyl)amino]propyl}phenyl)methanone oxalate] |  | 3880 | 5.36
